In US10752584B2 (EMORY UNIVERSITY, priority 2016, dated 2020):

What was measured:
Format in all cases: cell-based
[1] = Cellular toxicity assay in human PBM cells; conditions: human, human PBM cells, read-out: Cytotoxicity
Summary of the method: (§1)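 Toxicity in cells was measured across a concentration range. Negative controls were untreated cells given solvent, while cycloheximide served as the cytotoxic reference. Values are IC50s by median-effect analysis.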

[2] = Cellular toxicity assay in CEM cells; conditions: human, CEM lymphoblastoid cells, read-out: Cytotoxicity
Summary of the method: as §1

wild type HBV = assay: Anti-HBV assay in AD-38 cell line; conditions: Hepatitis B virus, AD-38 cells, HBV in culture supernatant

In the case of `C#CCNC(=O)C(=O)c1c(C)c(C(=O)Nc2ccc(F)c(F)c2)n(C)c1C` [Compound 7a, 4-[(Propargylamino)(oxo)acetyl]-N-(3,4-difluorophenyl)-1,3,5-trimethyl-1H-pyrrole-2-carboxamide], the CC50 [1] is reported as > 100000 nM, the CC50 [2] is reported as > 100000 nM and the EC50 (wild type HBV; read-out: Anti-HBV activity EC50) is reported as 1 to 9 nM. It also gave an EC90 (wild type HBV; read-out: Anti-HBV activity EC90) of 10 to 90 nM.
